This note sets out measurements from ChEMBL document CHEMBL3244082, “5-allyl-9-oxobenzomorphans. 3. Potent narcotic antagonists and analgesics-antagonists in the series of substituted 2',9beta-dihydroxy-6,7-benzomorphans” (1977).

Common to all, as to format: functional
Assay [1] deals with Rattus norvegicus. The assay is described as follows: Narcotic antagonist activity in sc dosed rat assessed as reversal of morphine-induced analgesia by tail-flick test.
Assay [2] deals with Mus musculus. Kind of assay: Analgesic activity in sc dosed mouse assessed as reduction in phenylquinone-induced writhing administered 15 mins prior to phenylquinone-challenge measured up to 10 mins. (Writhing tests count abdominal constrictions after an irritant is injected.)
The subject of assay [3] is Rattus norvegicus. Kind of assay: Analgesic activity in sc dosed rat assessed as reduction in phenylquinone-induced writhing administered 15 mins prior to phenylquinone-challenge measured up to 10 mins.
Assay [4] concerns Mus musculus. Kind of assay: Narcotic antagonist activity in sc dosed mouse assessed as inhibition of oxymorphone-induced straub tail response administered 10 mins post oxymorphone-challenge.
For assay [5], the system named is Rattus norvegicus. Kind of assay: Narcotic antagonist activity in sc dosed rat assessed as reversal of oxymorphone-induced loss of righting reflex.
In assay [6] the test system is Mus musculus. Kind of assay: Analgesic activity in po dosed mouse assessed as increase in response time by hot plate test relative to control. (In general: Hot-plate and tail-flick tests time the reaction to a heat stimulus.)
Assay [7] concerns Mus musculus. The assay is described as follows: Analgesic activity in po dosed mouse by hot plate test.
Assay [8] concerns Mus musculus. The assay is described as follows: Analgesic activity in mouse assessed as reduction in phenylquinone-induced writhing at 20 mg/kg, sc administered 15 mins prior to phenylquinone-challenge measured up to 10 mins relative to control. Also on record: scale not given: the % may be the effect or the level left. To be noted: route subcutaneous.
The test system of assay [9] is Mus musculus. The assay is described as follows: Analgesic activity in mouse assessed as reduction in phenylquinone-induced writhing at 40 mg/kg, sc administered 15 mins prior to phenylquinone-challenge measured up to 10 mins relative to control. Also on record: scale not given: the % may be the effect or the level left. To be noted: route subcutaneous.
Assay [10] has as its system Mus musculus. Kind of assay: Analgesic activity in mouse assessed as reduction in phenylquinone-induced writhing at 2.5 mg/kg, sc administered 15 mins prior to phenylquinone-challenge measured up to 10 mins relative to control. Also noted: scale not given: the % may be the effect or the level left. The note with it: route subcutaneous.
Assay [11] has as its system Mus musculus. Kind of assay: Analgesic activity in mouse assessed as reduction in phenylquinone-induced writhing at 1.25 mg/kg, sc administered 15 mins prior to phenylquinone-challenge measured up to 10 mins relative to control. Also noted: scale not given: the % may be the effect or the level left. The note with it: route subcutaneous.
For assay [12], the system named is Mus musculus. The assay is described as follows: Analgesic activity in mouse assessed as reduction in phenylquinone-induced writhing at 10 mg/kg, sc administered 15 mins prior to phenylquinone-challenge measured up to 10 mins relative to control. Also on record: scale not given: the % may be the effect or the level left. The note with it: route subcutaneous.
Assay [13] relates to Mus musculus. Kind of assay: Narcotic antagonist activity in mouse assessed as inhibition of oxymorphone-induced straub tail response at 2.5 mg/kg, sc administered 10 mins post oxymorphone-challenge relative to control. The note with it: route subcutaneous.
Assay [14] deals with Mus musculus. The assay is described as follows: Narcotic antagonist activity in mouse assessed as inhibition of oxymorphone-induced straub tail response at 5 mg/kg, sc administered 10 mins post oxymorphone-challenge relative to control. The note with it: route subcutaneous.
Where [15] appears, read: Mus musculus, sc, read-out: ED50.
Setting [16] is: Mus musculus, sc, 10 min, read-out: ED50.

What is called ED50 is the dose that gives a 50% effect, or the effect in half of the subjects. As for `C=CC[C@]12CCN(CC3CC3)[C@H](Cc3ccc(O)cc31)[C@@]2(C)O.O=C(O)C(O)C(O)C(=O)O` (stereo in doubt; (-)-23a), the ED50 was found to be 0.006 mg/kg with Rattus norvegicus [1], 44 mg/kg with Mus musculus [2] (setting [15]), 8 mg/kg in the assay with Rattus norvegicus [3] and 0.08 mg/kg with Mus musculus [4].
Regarding `C=CC[C@]12CCN(CC3CC3)[C@H](Cc3ccc(O)cc31)[C@H]2O`, in the assay with Mus musculus [4] (setting [16]), the ED50 stood at 0.5 mg/kg.
In the case of `CCC[C@]12CCN(CC3CCC3)[C@H](Cc3ccc(O)cc31)[C@@]2(C)O.Cl`, the median effective dose (ED50) in the assay on Rattus norvegicus [1] was found to be 0.084 mg/kg; in the assay with Mus musculus [2] (setting [15]) it was 0.18 mg/kg; with Mus musculus [4] (setting [16]) it was 1.17 mg/kg.
Turning to `C=CC[C@]12CCN(CC3CCC3)[C@H](Cc3ccc(O)cc31)[C@@]2(C)O.O=C(O)C(O)C(O)C(=O)O` (stereo in doubt; (-)-23b), the ED50 in the assay on Rattus norvegicus [1] was determined as 0.08 mg/kg; with Mus musculus [2] it was 0.06 mg/kg; with Rattus norvegicus [3] it was 0.01 mg/kg; in the assay on Rattus norvegicus [5], 0.05 mg/kg; in the assay with Mus musculus [4] it was 0.43 mg/kg.
As for `CC1C[C@]23CCN(C)[C@H](Cc4ccccc42)[C@H]3O1` (some centres not stated), the “%max” value in the assay with Mus musculus [6] stood at 16%. For the same compound, the values for the ED50 in the assay on Mus musculus [4] (setting [16]) and in the assay with Mus musculus [7] were greater than 40 mg/kg and 30 mg/kg, respectively.
Take `CC1C[C@]23CCN(C4CC4)[C@H](Cc4ccc(O)cc42)[C@H]3O1` (some centres not stated): the ED50 in the assay with Mus musculus [2] (setting [15]) stood at 30 mg/kg; in the assay on Mus musculus [4] (setting [16]), 8 mg/kg. For the same compound, the Activity in the assay on Mus musculus [8] was found to be 23%; in the assay on Mus musculus [9], 67%.
Take `C=CC[C@]12CCN(CC3CC3)[C@H](Cc3ccc(O)cc31)[C@@]2(C)O.O=C(O)C(O)C(O)C(=O)O` (stereo in doubt; (+)-23a): the ED50 with Mus musculus [2] and in the assay on Mus musculus [4] was greater than 40 mg/kg in each case.
As to `CCC[C@]12CCN(CC3CCC3)[C@H](Cc3ccc(O)cc31)[C@H]2O`, the ED50 with Mus musculus [2] (setting [15]) amounted to 0.24 mg/kg; in the assay on Mus musculus [4] (setting [16]), 2.5 mg/kg.
As for `C=CC[C@]12CCN(CC)[C@H](Cc3ccc(O)cc31)[C@@]2(C)O.O=C(O)C(=O)O`, the median effective dose (ED50) in the assay on Mus musculus [2] (setting [15]) was 2 mg/kg; with Mus musculus [4] (setting [16]), greater than 40 mg/kg.
`C=CC[C@]12CCN(C)[C@H](Cc3ccc(O)cc31)[C@H]2O`: the Activity in the assay on Mus musculus [10] worked out at 78%; in the assay on Mus musculus [11], 1.25%. Also, the results for the ED50 in the assay with Mus musculus [2] (setting [15]) and with Mus musculus [4] (setting [16]) were 1.9 mg/kg and greater than 40 mg/kg, respectively.
With `Br.CN1CC[C@]23CC(CBr)O[C@]2(C)[C@H]1Cc1ccccc13` (some centres not stated), the “%max” value in the assay with Mus musculus [6] was 32%. Further, the ED50 in the assay with Mus musculus [4] (setting [16]) was greater than 40 mg/kg; in the assay with Mus musculus [7], 64 mg/kg.
Consider `CC1C[C@]23CCN(C)[C@H](Cc4ccc(O)cc42)[C@H]3O1` (some centres not stated), for which the Activity in the assay with Mus musculus [12] came to 0%; in the assay with Mus musculus [8] it was 63%. In addition, the ED50 in the assay on Mus musculus [2] (setting [15]) is 19 mg/kg; in the assay with Mus musculus [4] (setting [16]), greater than 40 mg/kg.
Consider `Oc1ccc2c(c1)[C@@]13CCCC[C@@]1(O)[C@@H](C2)N(CC1CCC1)CC3` [BUTORPHANOL], for which the 50% effective dose (ED50) in the assay with Rattus norvegicus [1] turned out to be 0.43 mg/kg; with Mus musculus [2] (setting [15]) it was 0.05 mg/kg; in the assay on Rattus norvegicus [3] it was 0.04 mg/kg; in the assay on Rattus norvegicus [5], 0.27 mg/kg; with Mus musculus [4] (setting [16]), 0.98 mg/kg.
As to `CC1C[C@]23CCN(C4CC4)[C@H](Cc4ccc(O)cc42)[C@@]3(C)O1` (some centres not stated), the ED50 was greater than 40 mg/kg with Mus musculus [2] (setting [15]) and 0.63 mg/kg in the assay with Mus musculus [4] (setting [16]).
In the case of `C=CC[C@]12CCN(CC3CCC3)[C@H](Cc3ccc(O)cc31)[C@@]2(C)O.O=C(O)C(O)C(O)C(=O)O` (stereo in doubt; (+)-23b), the ED50 with Mus musculus [2] and in the assay on Mus musculus [4] was greater than 40 mg/kg each time.
As for `CCC[C@]12CCN(CC3CC3)[C@H](Cc3ccc(O)cc31)[C@@]2(C)O`, the 50% effective dose (ED50) in the assay with Rattus norvegicus [1] came to 0.008 mg/kg; in the assay on Mus musculus [2] (setting [15]) it was 44 mg/kg; with Rattus norvegicus [3], 30 mg/kg; with Rattus norvegicus [5] it was 0.013 mg/kg; in the assay on Mus musculus [4] (setting [16]), 0.074 mg/kg.
As for `Oc1ccc2c(c1)[C@@]13CCCC[C@@]1(O)[C@@H](C2)N(CC1CC1)CC3` [OXILORPHAN], the ED50 in the assay with Rattus norvegicus [1] turned out to be 0.012 mg/kg; with Mus musculus [2] (setting [15]), 13 mg/kg; with Rattus norvegicus [3], 8 mg/kg; in the assay with Rattus norvegicus [5] it was 0.03 mg/kg; in the assay on Mus musculus [4] (setting [16]), 0.19 mg/kg.
Take `CC1C[C@]23CCN(C)[C@H](Cc4ccccc42)[C@@]3(C)O1.Cl` (some centres not stated): in the assay on Mus musculus [6], the “%max” value is reported as 16%. Further, the figures for the ED50 in the assay with Mus musculus [4] (setting [16]) and in the assay on Mus musculus [7] were greater than 40 mg/kg and 16 mg/kg, respectively.
Take `CC1C[C@]23CCN(C)[C@H](Cc4ccc(O)cc42)[C@@]3(C)O1` (some centres not stated): the Activity was found to be 5% in the assay with Mus musculus [12] and 65% in the assay with Mus musculus [8]. The ED50 with Mus musculus [2] (setting [15]) is 18 mg/kg; in the assay on Mus musculus [4] (setting [16]), greater than 40 mg/kg.
As to `CCC[C@]12CCN(CC3CC3)[C@H](Cc3ccc(O)cc31)[C@H]2O`, the values for the ED50 in the assay on Mus musculus [2] (setting [15]) and in the assay on Mus musculus [4] (setting [16]) were 0.07 mg/kg and 0.62 mg/kg, respectively.
Consider `C=CC[C@]12CCN(CC3CC3)[C@H](Cc3ccc(O)cc31)[C@@]2(C)O`, for which the 50% effective dose (ED50) with Mus musculus [2] (setting [15]) was 45 mg/kg.
With `CCC[C@]12CCN(CC)[C@H](Cc3ccc(O)cc31)[C@@]2(C)O`, the ED50 is 2.1 mg/kg with Mus musculus [2] (setting [15]) and greater than 40 mg/kg with Mus musculus [4] (setting [16]).
Turning to `CC1C[C@]23CCN(C4CCC4)[C@H](Cc4ccc(O)cc42)[C@@]3(C)O1` (some centres not stated), the ED50 with Mus musculus [2] (setting [15]) was 40 mg/kg; in the assay on Mus musculus [13] it was 33 mg/kg; in the assay on Mus musculus [4] (setting [16]), 3 mg/kg; in the assay on Mus musculus [14], 100 mg/kg. Moreover, the figures for the Activity in the assay on Mus musculus [8] and with Mus musculus [9] were 33% and 50%, respectively.
As for `CN(C)CC1C[C@]23CCN(C)[C@H](Cc4ccccc42)[C@@]3(C)O1.Cl` (some centres not stated), the ED50 in the assay on Mus musculus [4] (setting [16]) and in the assay with Mus musculus [7] was greater than 40 mg/kg each time.
As to `C=CC[C@]12CCN(CC3CCC3)[C@H](Cc3ccc(O)cc31)[C@H]2O`, the results for the ED50 in the assay on Mus musculus [2] (setting [15]) and in the assay on Mus musculus [4] (setting [16]) were 0.3 mg/kg and 1.8 mg/kg, respectively.
Take `C=CC[C@]12CCN(Cc3ccco3)[C@H](Cc3ccc(O)cc31)[C@@]2(C)O.O=C(O)C(=O)O`: the 50% effective dose (ED50) with Mus musculus [2] (setting [15]) was 36 mg/kg; in the assay with Mus musculus [4] (setting [16]), 1.3 mg/kg. The figures for the Activity in the assay with Mus musculus [8] and in the assay on Mus musculus [9] were 0% and 66%, respectively.
